Here are results for 14 compounds from ChEMBL document CHEMBL1909046, “DrugMatrix in vitro pharmacology data”.

For orientation: IC50 means the concentration at which inhibition is half-maximal.

Experiment [1] addresses T1, Nitric oxide synthase, inducible (Mus musculus, UniProt P29477).
T1 sequence (P29477 whole entry): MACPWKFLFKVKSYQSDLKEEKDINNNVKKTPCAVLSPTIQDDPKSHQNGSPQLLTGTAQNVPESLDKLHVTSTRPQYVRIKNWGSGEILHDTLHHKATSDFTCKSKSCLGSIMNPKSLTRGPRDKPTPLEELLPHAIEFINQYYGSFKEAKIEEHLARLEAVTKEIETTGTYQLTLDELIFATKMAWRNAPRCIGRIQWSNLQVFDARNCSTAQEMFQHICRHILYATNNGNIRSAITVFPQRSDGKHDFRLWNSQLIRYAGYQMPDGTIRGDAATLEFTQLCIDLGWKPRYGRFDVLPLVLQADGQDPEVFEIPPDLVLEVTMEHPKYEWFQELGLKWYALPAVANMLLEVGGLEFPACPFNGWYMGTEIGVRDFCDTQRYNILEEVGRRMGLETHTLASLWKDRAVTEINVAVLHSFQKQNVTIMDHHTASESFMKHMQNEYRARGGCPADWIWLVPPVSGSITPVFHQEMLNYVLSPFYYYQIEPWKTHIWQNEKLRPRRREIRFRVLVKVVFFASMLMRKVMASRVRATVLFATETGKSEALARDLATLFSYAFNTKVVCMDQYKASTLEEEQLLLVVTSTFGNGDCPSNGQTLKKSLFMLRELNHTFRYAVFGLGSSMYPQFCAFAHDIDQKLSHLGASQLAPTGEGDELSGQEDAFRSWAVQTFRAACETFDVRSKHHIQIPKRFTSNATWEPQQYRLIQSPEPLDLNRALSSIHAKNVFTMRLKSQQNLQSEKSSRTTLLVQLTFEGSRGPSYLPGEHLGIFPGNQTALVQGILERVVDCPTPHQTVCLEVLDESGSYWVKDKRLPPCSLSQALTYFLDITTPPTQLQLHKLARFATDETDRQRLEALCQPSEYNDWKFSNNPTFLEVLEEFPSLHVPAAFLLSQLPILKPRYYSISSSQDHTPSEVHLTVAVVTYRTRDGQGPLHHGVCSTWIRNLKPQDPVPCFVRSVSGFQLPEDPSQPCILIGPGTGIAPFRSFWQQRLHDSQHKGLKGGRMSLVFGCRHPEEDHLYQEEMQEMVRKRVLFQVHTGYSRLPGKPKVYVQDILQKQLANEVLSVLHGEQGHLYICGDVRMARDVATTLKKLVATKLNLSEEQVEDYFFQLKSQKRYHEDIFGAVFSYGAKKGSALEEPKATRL
Further details: species or system Escherichia coli.

Experiment [2] has as its target Tyrosine-protein kinase Fyn (Homo sapiens, UniProt P06241). As to the kind of experiment: biochemical. It counts as cell-based, Insect cells.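 Also: enzymatic inhibition of Fyn kinase activity measured with Poly(Glu:Tyr) as the phosphorylation substrate; in other assays of this panel Not Active means under 50% inhibition at 10 µM.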
Experiment [3] deals with T2, C-C chemokine receptor type 4 (Homo sapiens, UniProt P51679).
T2 sequence (P51679 whole entry): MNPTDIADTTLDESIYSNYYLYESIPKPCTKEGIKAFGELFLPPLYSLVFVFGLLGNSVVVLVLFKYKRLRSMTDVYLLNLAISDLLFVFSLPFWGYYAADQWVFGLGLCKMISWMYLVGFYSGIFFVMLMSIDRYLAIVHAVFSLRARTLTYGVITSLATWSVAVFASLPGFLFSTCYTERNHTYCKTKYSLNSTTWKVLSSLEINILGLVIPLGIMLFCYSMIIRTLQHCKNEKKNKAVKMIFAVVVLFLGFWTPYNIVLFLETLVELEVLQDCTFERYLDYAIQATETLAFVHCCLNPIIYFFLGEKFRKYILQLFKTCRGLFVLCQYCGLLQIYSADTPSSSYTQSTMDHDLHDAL
Type of experiment: cell membranes, Chem-1, Membrane. Conditions: chem-1.

The target of experiment [4] is Delta-type opioid receptor (Homo sapiens, UniProt P41143). Type of experiment: cell membranes, HEK293, Membrane. Conditions: hek293. Also: in other assays of this panel Not Active means under 50% inhibition at 10 µM.
In experiment [5] the target is T3, Muscarinic acetylcholine receptor M5 (Homo sapiens, UniProt P08912). Also: in other assays of this panel Not Active means under 50% inhibition at 10 µM.
T3 sequence (P08912 whole entry): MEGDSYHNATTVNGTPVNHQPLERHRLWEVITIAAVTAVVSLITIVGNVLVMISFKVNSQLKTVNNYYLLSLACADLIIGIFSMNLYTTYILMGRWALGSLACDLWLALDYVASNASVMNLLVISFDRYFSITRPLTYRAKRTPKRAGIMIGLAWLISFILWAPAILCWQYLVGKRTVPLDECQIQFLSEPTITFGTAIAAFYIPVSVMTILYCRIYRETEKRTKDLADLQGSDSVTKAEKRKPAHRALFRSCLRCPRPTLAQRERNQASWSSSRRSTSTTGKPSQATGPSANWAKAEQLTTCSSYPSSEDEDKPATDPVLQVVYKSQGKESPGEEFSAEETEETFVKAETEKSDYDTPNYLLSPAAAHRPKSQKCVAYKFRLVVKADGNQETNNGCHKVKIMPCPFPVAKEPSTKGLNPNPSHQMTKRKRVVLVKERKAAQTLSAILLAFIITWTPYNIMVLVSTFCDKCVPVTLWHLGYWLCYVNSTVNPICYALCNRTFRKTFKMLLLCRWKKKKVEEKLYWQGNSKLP
Type of experiment: cell membranes, CHO-K1, Membrane. Conditions: cho-k1.

The nature of experiment [6]: DRUGMATRIX: Interleukin IL-1 radioligand binding (ligand: [125I] interleukin 1beta). Type of experiment: cell membranes, Membrane. Conditions: nih3t3; Not Active = under 50% inhibition at 10 µM.
The target in experiment [7] is T4, Type-2 angiotensin II receptor (Homo sapiens, UniProt P50052). Also: in other assays of this panel Not Active means under 50% inhibition at 10 µM.
T4 sequence (P50052 whole entry): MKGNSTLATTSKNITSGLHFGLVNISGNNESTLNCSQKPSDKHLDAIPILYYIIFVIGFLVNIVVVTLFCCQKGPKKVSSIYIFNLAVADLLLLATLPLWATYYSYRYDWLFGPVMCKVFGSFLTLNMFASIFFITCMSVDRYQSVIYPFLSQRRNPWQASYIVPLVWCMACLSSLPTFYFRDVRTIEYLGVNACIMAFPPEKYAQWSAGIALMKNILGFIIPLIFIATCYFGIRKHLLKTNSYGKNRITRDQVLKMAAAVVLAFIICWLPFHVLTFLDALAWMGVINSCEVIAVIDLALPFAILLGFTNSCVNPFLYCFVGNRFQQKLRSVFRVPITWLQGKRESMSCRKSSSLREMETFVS
Type of experiment: cell-based. Conditions: cho-k1.

Sequence of Tyrosine-protein kinase Fyn (P06241 whole entry): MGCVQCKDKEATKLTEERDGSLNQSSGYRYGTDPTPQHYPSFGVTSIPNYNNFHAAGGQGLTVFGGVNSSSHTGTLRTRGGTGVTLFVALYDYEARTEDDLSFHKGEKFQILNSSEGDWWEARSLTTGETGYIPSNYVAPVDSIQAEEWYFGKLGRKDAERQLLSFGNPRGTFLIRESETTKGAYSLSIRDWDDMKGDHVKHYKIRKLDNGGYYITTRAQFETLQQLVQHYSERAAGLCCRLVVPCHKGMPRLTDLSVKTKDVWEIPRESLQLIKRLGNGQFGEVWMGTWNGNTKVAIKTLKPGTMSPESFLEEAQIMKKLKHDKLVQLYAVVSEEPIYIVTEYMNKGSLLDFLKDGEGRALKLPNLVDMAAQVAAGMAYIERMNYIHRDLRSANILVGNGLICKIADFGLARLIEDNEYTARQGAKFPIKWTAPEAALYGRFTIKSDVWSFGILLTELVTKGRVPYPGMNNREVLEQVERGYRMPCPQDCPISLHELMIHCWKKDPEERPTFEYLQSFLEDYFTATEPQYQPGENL
Sequence of Delta-type opioid receptor (P41143 whole entry): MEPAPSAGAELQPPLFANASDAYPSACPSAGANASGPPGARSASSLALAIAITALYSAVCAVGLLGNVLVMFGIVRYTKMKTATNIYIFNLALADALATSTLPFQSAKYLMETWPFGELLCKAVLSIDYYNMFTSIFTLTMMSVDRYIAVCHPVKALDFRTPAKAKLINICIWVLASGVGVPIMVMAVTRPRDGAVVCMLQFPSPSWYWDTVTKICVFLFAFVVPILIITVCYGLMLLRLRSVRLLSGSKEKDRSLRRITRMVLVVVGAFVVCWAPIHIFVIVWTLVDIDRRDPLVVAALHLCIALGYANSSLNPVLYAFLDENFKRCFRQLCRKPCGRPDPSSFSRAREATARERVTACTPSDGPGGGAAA

For the compound `CCOC(=O)C1=C(C)NC(C)=C(C(=O)OCC)C1c1ccccc1/C=C/C(=O)OC(C)(C)C` [LACIDIPINE], the IC50 result in experiment [1], in experiment [2] (insect cells), in experiment [3], in experiment [4], in experiment [5] and in experiment [6] was “Not Active” in each case. For the same compound, the IC50 result in experiment [7] was “Not Active”. Moreover, in experiment [6], the Ki entry is “Not Active”.
Turning to `O=C(c1ccccc1)c1ccc2n1CCC2C(=O)O` (configuration not stated) [KETOROLAC], the IC50 entry in experiment [1], in experiment [2] (insect cells), in experiment [3], in experiment [4], in experiment [5] and in experiment [6] was “Not Active” in each case. Moreover, the IC50 entry in experiment [7] is reported as “Not Active”. In addition, the Ki entry in experiment [6] is listed as “Not Active”.
`CCN(CC)N=O` [N-NITROSODIETHYLAMINE]: the IC50 entry in experiment [1], in experiment [2] (insect cells), in experiment [3], in experiment [4], in experiment [5] and in experiment [6] was “Not Active” throughout. The IC50 entry in experiment [7] is on record as “Not Active”. Moreover, the Ki entry in experiment [6] is on record as “Not Active”.
For the compound `CO[C@@]12[C@H](COC(N)=O)C3=C(C(=O)C(C)=C(N)C3=O)N1C[C@@H]1N[C@@H]12` [MITOMYCIN], the IC50 result in experiment [1], in experiment [2] (insect cells), in experiment [3], in experiment [4], in experiment [5] and in experiment [6] was “Not Active” each time. Also, in experiment [7], the IC50 result is “Not Active”. Further, the Ki result in experiment [6] is “Not Active”.
Take `Cc1ccc(S(=O)(=O)NC(=O)NN2CCCCCC2)cc1` [TOLAZAMIDE]: the IC50 result in experiment [1], in experiment [2] (insect cells), in experiment [3], in experiment [4], in experiment [5] and in experiment [6] was “Not Active” throughout. For the same compound, the IC50 result in experiment [7] is reported as “Not Active”. Besides, the Ki entry in experiment [6] is given as “Not Active”.
For the compound `CCC(C)(C)C(=O)O[C@H]1C[C@@H](C)C=C2C=C[C@H](C)[C@H](CC[C@@H]3C[C@@H](O)CC(=O)O3)[C@H]21` [SIMVASTATIN], the IC50 result in experiment [1], in experiment [2] (insect cells), in experiment [3], in experiment [4], in experiment [5] and in experiment [6] was “Not Active” throughout. Besides, in experiment [7], the IC50 result is given as “Not Active”. Also, the Ki result in experiment [6] is on record as “Not Active”.
With LEAD(IV) ACETATE, the IC50 result was “Not Active” in experiment [1]; 3300 nM in experiment [2] (insect cells, read-out: IC50); “Not Active” in experiment [3]; “Not Active” in experiment [4]; “Not Active” in experiment [5]; “Not Active” in experiment [6]. In addition, the IC50 result in experiment [7] was “Not Active”. The Ki entry in experiment [1], in experiment [3], in experiment [4], in experiment [5], in experiment [6] and in experiment [7] was “Not Active” throughout.
`CCN1CCCC1CNC(=O)c1cc(S(N)(=O)=O)ccc1OC` (configuration not stated) [SULPIRIDE]: the IC50 result in experiment [1], in experiment [2] (insect cells), in experiment [3], in experiment [4], in experiment [5] and in experiment [6] was “Not Active” each time. In addition, the IC50 entry in experiment [7] is listed as “Not Active”. The Ki result in experiment [6] is “Not Active”.
Regarding `CC[C@H](C)C(=O)O[C@H]1CCC=C2C=C[C@H](C)[C@H](CC[C@@H]3C[C@@H](O)CC(=O)O3)[C@H]21` [MEVASTATIN], the IC50 result in experiment [1], in experiment [2] (insect cells), in experiment [3], in experiment [4], in experiment [5] and in experiment [6] was “Not Active” throughout. Also, the IC50 result in experiment [7] is “Not Active”. Besides, the Ki entry in experiment [6] is listed as “Not Active”.
Consider `CN1C[C@H](CNC(=O)OCc2ccccc2)C[C@@H]2c3cccc4c3c(cn4C)C[C@H]21` [METERGOLINE], for which the IC50 result in experiment [1], in experiment [2] (insect cells), in experiment [3], in experiment [4], in experiment [5] and in experiment [6] was “Not Active” each time. For the same compound, the IC50 entry in experiment [7] is “Not Active”. The Ki entry in experiment [6] is listed as “Not Active”.
For the compound `Oc1ccc(/C=C/c2cc(O)cc(O)c2)cc1` [RESVERATROL], the IC50 entry in experiment [1], in experiment [2] (insect cells), in experiment [3], in experiment [4], in experiment [5] and in experiment [6] was “Not Active” throughout. Further, in experiment [7], the IC50 result is “Not Active”. Also, in experiment [6], the Ki result is listed as “Not Active”.
On to `CC1=C(/C=C/C(C)=C/C=C/C(C)=C/C(=O)O)C(C)(C)CCC1` [TRETINOIN], for which the IC50 result in experiment [1], in experiment [2] (insect cells), in experiment [3], in experiment [4], in experiment [5] and in experiment [6] was “Not Active” throughout. The IC50 result in experiment [7] is recorded as “Not Active”. Further, the Ki entry in experiment [6] was “Not Active”.
In the case of `CC[C@@]1(O)C(=O)OCc2c1cc1n(c2=O)Cc2cc3c(CN(C)C)c(O)ccc3nc2-1` [TOPOTECAN], the IC50 result in experiment [1], in experiment [2] (insect cells), in experiment [3], in experiment [4], in experiment [5] and in experiment [6] was “Not Active” in each case. Also, the IC50 entry in experiment [7] is on record as “Not Active”. Moreover, in experiment [6], the Ki result is on record as “Not Active”.
Take `O=C(OC[C@H]1O[C@@H](OC(=O)c2cc(O)c(O)c(OC(=O)c3cc(O)c(O)c(O)c3)c2)[C@H](OC(=O)c2cc(O)c(O)c(OC(=O)c3cc(O)c(O)c(O)c3)c2)[C@@H](OC(=O)c2cc(O)c(O)c(OC(=O)c3cc(O)c(O)c(O)c3)c2)[C@@H]1OC(=O)c1cc(O)c(O)c(OC(=O)c2cc(O)c(O)c(O)c2)c1)c1cc(O)c(O)c(OC(=O)c2cc(O)c(O)c(O)c2)c1` [TANNIC ACID]: the IC50 result was “Not Active” in experiment [1]; 22 nM in experiment [2] (read-out: IC50); “Not Active” in experiment [3]; “Not Active” in experiment [4]; “Not Active” in experiment [5]; “Not Active” in experiment [6]. Further, in experiment [7], the IC50 entry is “Not Active”. The Ki entry in experiment [6] is on record as “Not Active”.
